In ChEMBL document CHEMBL4152352, “Discovery of a non-toxic [1,2,4]triazolo[1,5-a]pyrimidin-7-one (WS-10) that modulates ABCB1-mediated multidrug resistance (MDR)” (Bioorg Med Chem, 2018):
Active and inactive are the calls of the source. No cut-off for these calls is given here.

Columns and labels:
SW-620 [1] = experiment: Cytotoxicity against human SW620 cells assessed as decrease in cell survival after 72 hrs by MTT assay; type: cell-based; conditions: SW-620, 72 h
SW620/AD300 [2] = experiment: Cytotoxicity against human SW620/AD300 cells assessed as decrease in cell survival after 72 hrs by MTT assay; type: cell-based; conditions: SW620/AD300, 72 h
ECa-109 cell line = experiment: Cytotoxicity against human EC109 cells assessed as decrease in cell survival at 10 to 20 uM after 72 hrs by MTT assay; type: cell-based; conditions: eca-109, 72 h
TE-1 = experiment: Cytotoxicity against human TE1 cells assessed as decrease in cell survival at 10 to 20 uM after 72 hrs by MTT assay; type: cell-based; conditions: te-1, 72 h
A549 = experiment: Cytotoxicity against human A549 cells assessed as decrease in cell survival at 10 to 20 uM after 72 hrs by MTT assay; type: cell-based; conditions: a549, 72 h
SGC-7901 = experiment: Cytotoxicity against human SGC7901 cells assessed as decrease in cell survival at 10 to 20 uM after 72 hrs by MTT assay; type: cell-based; conditions: sgc-7901, 72 h
MGC-803 = experiment: Cytotoxicity against human MGC803 cells assessed as decrease in cell survival at 10 to 20 uM after 72 hrs by MTT assay; type: cell-based; conditions: mgc-803, 72 h
SW-620 [3] = experiment: Potentiation of paclitaxel-induced cytotoxicity against human SW620 cells assessed as change in paclitaxel IC50 at 10 uM after 72 hrs by MTT assay relative to control; type: cell-based; conditions: sw-620, 72 h
SW-620 [4] = experiment: Potentiation of paclitaxel-induced cytotoxicity against human SW620 cells assessed as change in paclitaxel IC50 at 20 uM after 72 hrs by MTT assay relative to control; type: cell-based; conditions: sw-620, 72 h
SW-620 [5] = experiment: Potentiation of paclitaxel-induced cytotoxicity against human SW620 cells assessed as change in paclitaxel IC50 at 4 uM after 72 hrs by MTT assay relative to control; type: cell-based; conditions: sw-620, 72 h
SW-620 [6] = experiment: Potentiation of doxorubicin-induced cytotoxicity against human SW620 cells assessed as change in doxorubicin IC50 at 10 uM after 72 hrs by MTT assay relative to control; type: cell-based; conditions: sw-620, 72 h
SW-620 [7] = experiment: Potentiation of doxorubicin-induced cytotoxicity against human SW620 cells assessed as change in doxorubicin IC50 at 20 uM after 72 hrs by MTT assay relative to control; type: cell-based; conditions: sw-620, 72 h
SW-620 [8] = experiment: Potentiation of doxorubicin-induced cytotoxicity against human SW620 cells assessed as change in doxorubicin IC50 at 4 uM after 72 hrs by MTT assay relative to control; type: cell-based; conditions: sw-620, 72 h
SW-620 [9] = experiment: Potentiation of cisplatin-induced cytotoxicity against human SW620 cells assessed as change in cisplatin IC50 at 10 uM after 72 hrs by MTT assay relative to control; type: cell-based; conditions: sw-620, 72 h
SW-620 [10] = experiment: Potentiation of cisplatin-induced cytotoxicity against human SW620 cells assessed as change in cisplatin IC50 at 20 uM after 72 hrs by MTT assay relative to control; type: cell-based; conditions: sw-620, 72 h
SW-620 [11] = experiment: Potentiation of cisplatin-induced cytotoxicity against human SW620 cells assessed as change in cisplatin IC50 at 4 uM after 72 hrs by MTT assay relative to control; type: cell-based; conditions: sw-620, 72 h
[12] = Ratio of paclitaxel IC50 for cytotoxicity against human SW620 cells in absence of test compound to paclitaxel IC50 for human SW620/Ad300 cells in presence to 10 uM test compound; type: functional
[13] = Ratio of paclitaxel IC50 for cytotoxicity against human SW620 cells in absence of test compound to paclitaxel IC50 for human SW620/Ad300 cells in presence to 20 uM test compound; type: functional
[14] = Ratio of paclitaxel IC50 for cytotoxicity against human SW620 cells in absence of test compound to paclitaxel IC50 for human SW620/Ad300 cells in presence to 4 uM test compound; type: functional
[15] = Ratio of doxorubicin IC50 for cytotoxicity against human SW620 cells in absence of test compound to doxorubicin IC50 for human SW620/Ad300 cells in presence to 10 uM test compound; type: functional
[16] = Ratio of doxorubicin IC50 for cytotoxicity against human SW620 cells in absence of test compound to doxorubicin IC50 for human SW620/Ad300 cells in presence to 20 uM test compound; type: functional
[17] = Ratio of doxorubicin IC50 for cytotoxicity against human SW620 cells in absence of test compound to doxorubicin IC50 for human SW620/Ad300 cells in presence to 4 uM test compound; type: functional
[18] = Ratio of cisplatin IC50 for cytotoxicity against human SW620 cells in absence of test compound to cisplatin IC50 for human SW620/Ad300 cells in presence to 10 uM test compound; type: functional
[19] = Ratio of cisplatin IC50 for cytotoxicity against human SW620 cells in absence of test compound to cisplatin IC50 for human SW620/Ad300 cells in presence to 20 uM test compound; type: functional
[20] = Ratio of cisplatin IC50 for cytotoxicity against human SW620 cells in absence of test compound to cisplatin IC50 for human SW620/Ad300 cells in presence to 4 uM test compound; type: functional
HEK-293T [21] = experiment: Potentiation of paclitaxel-induced cytotoxicity against HEK293T cells assessed as change in paclitaxel IC50 at 10 uM after 72 hrs by MTT assay relative to control; type: cell-based; conditions: human
HEK-293T [22] = experiment: Potentiation of paclitaxel-induced cytotoxicity against HEK293T cells assessed as change in paclitaxel IC50 at 20 uM after 72 hrs by MTT assay relative to control; type: cell-based; conditions: human
HEK-293T [23] = experiment: Potentiation of paclitaxel-induced cytotoxicity against HEK293T cells assessed as change in paclitaxel IC50 at 4 uM after 72 hrs by MTT assay relative to control; type: cell-based; conditions: human
HEK-293T [24] = experiment: Potentiation of doxorubicin-induced cytotoxicity against HEK293T cells assessed as change in doxorubicin IC50 at 10 uM after 72 hrs by MTT assay relative to control; type: cell-based; conditions: human
HEK-293T [25] = experiment: Potentiation of doxorubicin-induced cytotoxicity against HEK293T cells assessed as change in doxorubicin IC50 at 20 uM after 72 hrs by MTT assay relative to control; type: cell-based; conditions: human
HEK-293T [26] = experiment: Potentiation of doxorubicin-induced cytotoxicity against HEK293T cells assessed as change in doxorubicin IC50 at 4 uM after 72 hrs by MTT assay relative to control; type: cell-based; conditions: human
HEK-293T [27] = experiment: Potentiation of cisplatin-induced cytotoxicity against HEK293T cells assessed as change in cisplatin IC50 at 10 uM after 72 hrs by MTT assay relative to control; type: cell-based; conditions: human
HEK-293T [28] = experiment: Potentiation of cisplatin-induced cytotoxicity against HEK293T cells assessed as change in cisplatin IC50 at 20 uM after 72 hrs by MTT assay relative to control; type: cell-based; conditions: human
HEK-293T [29] = experiment: Potentiation of cisplatin-induced cytotoxicity against HEK293T cells assessed as change in cisplatin IC50 at 4 uM after 72 hrs by MTT assay relative to control; type: cell-based; conditions: human
[30] = Ratio of paclitaxel IC50 for cytotoxicity against HEK293T cells in absence of test compound to paclitaxel IC50 for HEK293T cells expressing ABCB1 in presence of 10 uM test compound; type: functional, Homo sapiens
[31] = Ratio of paclitaxel IC50 for cytotoxicity against HEK293T cells in absence of test compound to paclitaxel IC50 for HEK293T cells expressing ABCB1 in presence of 20 uM test compound; type: functional, Homo sapiens
[32] = Ratio of paclitaxel IC50 for cytotoxicity against HEK293T cells in absence of test compound to paclitaxel IC50 for HEK293T cells expressing ABCB1 in presence of 4 uM test compound; type: functional, Homo sapiens
[33] = Ratio of doxorubicin IC50 for cytotoxicity against HEK293T cells in absence of test compound to doxorubicin IC50 for HEK293T cells expressing ABCB1 in presence of 10 uM test compound; type: functional, Homo sapiens
[34] = Ratio of doxorubicin IC50 for cytotoxicity against HEK293T cells in absence of test compound to doxorubicin IC50 for HEK293T cells expressing ABCB1 in presence of 20 uM test compound; type: functional, Homo sapiens
[35] = Ratio of doxorubicin IC50 for cytotoxicity against HEK293T cells in absence of test compound to doxorubicin IC50 for HEK293T cells expressing ABCB1 in presence of 4 uM test compound; type: functional, Homo sapiens
[36] = Ratio of cisplatin IC50 for cytotoxicity against HEK293T cells in absence of test compound to cisplatin IC50 for HEK293T cells expressing ABCB1 in presence of 10 uM test compound; type: functional, Homo sapiens
[37] = Ratio of cisplatin IC50 for cytotoxicity against HEK293T cells in absence of test compound to cisplatin IC50 for HEK293T cells expressing ABCB1 in presence of 20 uM test compound; type: functional, Homo sapiens
[38] = Ratio of cisplatin IC50 for cytotoxicity against HEK293T cells in absence of test compound to cisplatin IC50 for HEK293T cells expressing ABCB1 in presence of 4 uM test compound; type: functional, Homo sapiens
[39] = target: T1, ATP-dependent translocase ABCB1 (Homo sapiens, UniProt P08183); experiment: Inhibition of ABCB1 in human SW620/Ad300 cells assessed as potentiation of paclitaxel-induced cytotoxicity after 72 hrs by MTT assay; type: cell-based
T1 sequence (P08183 whole entry): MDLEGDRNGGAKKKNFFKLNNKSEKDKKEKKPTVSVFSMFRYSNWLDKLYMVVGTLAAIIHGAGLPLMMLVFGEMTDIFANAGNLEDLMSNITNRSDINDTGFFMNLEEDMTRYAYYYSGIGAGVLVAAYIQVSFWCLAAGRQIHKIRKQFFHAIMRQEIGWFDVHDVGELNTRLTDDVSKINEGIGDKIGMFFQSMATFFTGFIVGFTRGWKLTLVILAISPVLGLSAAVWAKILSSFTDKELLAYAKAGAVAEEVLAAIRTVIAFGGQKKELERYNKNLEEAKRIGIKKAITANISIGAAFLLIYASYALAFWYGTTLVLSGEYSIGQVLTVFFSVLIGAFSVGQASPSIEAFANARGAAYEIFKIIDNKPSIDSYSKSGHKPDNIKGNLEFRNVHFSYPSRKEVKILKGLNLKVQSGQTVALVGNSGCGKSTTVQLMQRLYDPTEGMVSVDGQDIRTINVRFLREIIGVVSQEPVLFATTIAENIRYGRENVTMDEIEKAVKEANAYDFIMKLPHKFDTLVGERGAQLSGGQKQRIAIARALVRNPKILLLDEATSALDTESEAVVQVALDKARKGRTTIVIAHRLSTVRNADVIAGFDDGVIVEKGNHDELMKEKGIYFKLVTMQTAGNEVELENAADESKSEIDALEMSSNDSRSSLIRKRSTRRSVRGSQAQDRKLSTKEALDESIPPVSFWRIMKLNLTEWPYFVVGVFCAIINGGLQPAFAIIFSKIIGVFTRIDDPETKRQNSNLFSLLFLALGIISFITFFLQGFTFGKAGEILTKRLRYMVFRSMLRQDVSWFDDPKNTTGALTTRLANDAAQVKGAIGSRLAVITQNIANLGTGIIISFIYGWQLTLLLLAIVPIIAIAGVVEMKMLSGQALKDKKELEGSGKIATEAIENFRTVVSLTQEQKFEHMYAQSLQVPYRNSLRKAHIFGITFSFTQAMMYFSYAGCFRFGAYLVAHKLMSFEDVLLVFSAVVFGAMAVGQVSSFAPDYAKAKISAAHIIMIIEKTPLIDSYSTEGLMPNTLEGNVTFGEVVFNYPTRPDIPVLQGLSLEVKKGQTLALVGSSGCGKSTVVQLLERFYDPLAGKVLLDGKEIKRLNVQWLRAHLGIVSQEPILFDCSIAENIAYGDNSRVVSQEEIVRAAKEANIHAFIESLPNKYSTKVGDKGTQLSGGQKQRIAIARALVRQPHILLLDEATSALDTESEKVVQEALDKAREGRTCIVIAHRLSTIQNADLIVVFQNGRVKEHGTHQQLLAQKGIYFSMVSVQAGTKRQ

[40] = target: T1, ATP-dependent translocase ABCB1; experiment: Inhibition of ABCB1 in human SW620/Ad300 cells assessed as potentiation of doxorubicin-induced cytotoxicity after 72 hrs by MTT assay; type: cell-based
[41] = target: T1, ATP-dependent translocase ABCB1; experiment: Inhibition of ABCB1 (unknown origin) expressed in HEK293T cells assessed as potentiation of doxorubicin-induced cytotoxicity after 72 hrs by MTT assay; type: cell-based
[42] = target: T1, ATP-dependent translocase ABCB1; experiment: Inhibition of ABCB1 in human SW620/Ad300 cells assessed as increase in intracellular paclitaxel accumulation at 10 to 20 uM preincubated for 72 hrs followed by paclitaxel addition and measured after 3 hrs by UPLC method; type: cell-based
SW620/AD300 [43] = experiment: Effect on expression of ABCB1 protein in human SW620/Ad300 cells at 10 to 20 uM by Western blot method; type: functional, cell-based
SW620/AD300 [44] = experiment: Effect on expression of ABCB1 protein in human SW620/Ad300 cells at 20 uM after 24 to 96 hrs by Western blot method; type: functional, cell-based
[45] = target: T1, ATP-dependent translocase ABCB1; experiment: Stabilization of ABCB1 in human SW620/Ad300 cells at 10 uM after 30 mins by cellular thermal shift assay; type: cell-based; conditions: 0.5 h

O=c1cc(-c2ccccc2)[nH]c2nc(SCc3nc4ccccc4[nH]3)nn12
IC50 (SW-620 [1]): 86 µM | IC50 (SW620/AD300 [2]): 106 µM | Activity (ECa-109 cell line): Non-Toxic | Activity (TE-1): Non-Toxic | Activity (A549): Non-Toxic | Activity (SGC-7901): Non-Toxic | Activity (MGC-803): Non-Toxic | fold change (FC) (SW-620 [3]): 1.2 | fold change (FC) (SW-620 [4]): 0.81 | fold change (FC) (SW-620 [5]): 1.29 | fold change (FC) (SW-620 [6]): 1.17 | fold change (FC) (SW-620 [7]): 1.14 | fold change (FC) (SW-620 [8]): 1.18 | fold change (FC) (SW-620 [9]): 1.07 | fold change (FC) (SW-620 [10]): 0.97 | fold change (FC) (SW-620 [11]): 1.1 | Ratio IC50 [12]: 279.2 | Ratio IC50 [13]: 125.8 | Ratio IC50 [14]: 156.74 | Ratio IC50 [15]: 6.02 | Ratio IC50 [16]: 3.77 | Ratio IC50 [17]: 4.32 | Ratio IC50 [18]: 0.96 | Ratio IC50 [19]: 1.01 | Ratio IC50 [20]: 0.98 | fold change (FC) (HEK-293T [21]): 0.87 | fold change (FC) (HEK-293T [22]): 0.83 | fold change (FC) (HEK-293T [23]): 0.84 | fold change (FC) (HEK-293T [24]): 1.14 | fold change (FC) (HEK-293T [25]): 1.08 | fold change (FC) (HEK-293T [26]): 1.07 | fold change (FC) (HEK-293T [27]): 1.04 | fold change (FC) (HEK-293T [28]): 0.98 | fold change (FC) (HEK-293T [29]): 0.89 | Ratio IC50 [30]: 27.8 | Ratio IC50 [31]: 19.37 | Ratio IC50 [32]: 15.69 | Ratio IC50 [33]: 5.36 | Ratio IC50 [34]: 4.05 | Ratio IC50 [35]: 4.1 | Ratio IC50 [36]: 1.05 | Ratio IC50 [37]: 0.91 | Ratio IC50 [38]: 0.91 | inhibition (INH) [39]: Dose-dependent effect | inhibition (INH) [40]: Dose-dependent effect | inhibition (INH) [41]: Dose-dependent effect | inhibition (INH) [42]: Active | Activity (SW620/AD300 [43]): inactive | Activity (SW620/AD300 [44]): inactive | Activity [45]: Active
